Laboratory results published in patent US12023308B2, “Agents for reversing toxic proteinopathies” (THE BROAD INSTITUTE, INC., priority 2019, dated 2024).

Assays:
[1] = test system: P cells; test: P cell viability upon THP treatment (live imaging, rescue); format: cell-based, human; conditions: P cells
Method: To study apoptosis and cell death in N and P cells, 384 well Cell Carrier Ultra plates (6057308, Perkin Elmer), pre-coated with 0.25 mg/mL Synthemax II SC Substrate (3535, Corning) were used. […] CellEvent Caspase-3/7 Green Detection Reagent (C10423, Thermo Fisher Scientific®) and DRAQ7 (DR71000, Biostatus) were used at 1:5000 to monitor apoptosis and cell death respectively. Cells were imaged daily during 4 days to monitor viability and image analysis was performed as described below. For rescue experiments, P cells were plated on 96 well Cell Carrier Ultra microplates (6055302, Perkin Elmer) at 30,000 cells/well and cultured for 24 hr. BRD-4780 (5 μM) was applied as a pretreatment for 48 hr prior to thapsigargin exposure and throughout the experiment. Thapsigargin was applied at increasing doses and the plates were imaged daily thereafter.
For the measurement of P cell rescue from THP-induced cell death by BRD-4780 (FIGS. 3I and 3J), no dyes were added to avoid any influence on cell growth. Digital phase contrast images were used for cell identification and count, and autofluorescence in the far-red channel was used for detection of dead cells. Cells with no autofluorescence were identified and calculated as live cell.
P cells were seeded 12 hr prior to profiling compound treatment at a density of 12,000 cells/well in 384 well Cell Carrier Ultra plates (6057308, Perkin Elmer), pre-coated with 0.25 mg/mL Synthemax II SC Substrate (3535, Corning). After 24 hr, CellEvent Caspase-3/7 Green Detection Reagent (C10423, Thermo Fisher Scientific®) and DRAQ7 (DR71000, Biostatus) were added at 1:5000 final dilution in the presence or absence of thapsigargin (100 nM). Cells were imaged daily during 7 days to monitor viability. Image acquisition and analysis was done as described above and viability was assessed as fraction of live cells at day 5 of thapsigargin treatment, and at the day 6 for DMSO.

[2] = Dose response exposure PK study in male 129-ELITE mice; format: in vivo, mouse; conditions: single p.o. doses
Method: 4) A pharmacokinetic study was performed by Charles River Labs (CRL) (Worcester, Mass., USA) in fed male 129-ELITE mice (study EF-0024-DA-MI) to determine the dose response exposure of BRD-4780, BRD-1365 and BRD-7709 in plasma, kidney, liver and eye. Brain exposure to BRD-4780 at 30 mg/kg was also evaluated A single dose of BRD-4780 was administered at 30.0 mg/kg or 100 mg/kg orally (p.o) in a clear solution of 5% dextrose in water (D5W). For BRD-1365 and BRD-7709, a single dose of either compound was administered at 10.0 mg/kg, 30.0 mg/kg, 50.0 mg/kg or 100 mg/kg orally (p.o) in a clear solution of 5% dextrose in water (D5W). Blood, kidney, liver and eye tissue were collected from n=3 mice per dose group at six time points post p.o. dose administration (1, 2, 6, 10, 16 and 24 hours) with all three compounds. Brain tissue was collected from n=3 mice per dose group at six time points post p.o. dose administration (1, 2, 6, 10, 16 and 24 hours) with BRD-4780 at 30 mg/kg. Plasma obtained by centrifugation and tissue fragments were homogenized. Plasma and tissue drug concentration was determined by LC-MS/MS and reported as drug concentration in ng/mL for plasma and ng/mg for kidney, liver and eye tissue, plotted as the mean±standard deviation concentration for males for BRD-4780 ([…]), BRD-1365 (FIG. 11K) and BRD-7709 (FIG. 11M). Standard pharmacokinetic parameters were calculated for males for BRD-4780 ([…]), BRD-1365 (FIG. 11O) and BRD-7709 (FIG. 11P).

[3] = Plasma stability; format: in vitro ADME
Method: Plasma stability was determined at 37° C. at 5 hr in plasma. Each compound was prepared in duplicate at 5 μM in plasma diluted 50/50 (v/v) with PBS pH 7.4 (0.95% acetonitrile, 0.05% DMSO). Duplicate plates were prepared. One plate was incubated at 37° C. for 5 hr with a 350 rpm orbital shake, while the other plate was immediately quenched. Each well was quenched by adding acetonitrile to a 3:1 ratio (v/v, ACN/plasma). After quenching, samples were centrifuged (32×G) to pellet precipitated particulates and an aliquot of supernatant was diluted 50/50 (v/v) with water. The resulting solution was analyzed by UPLC-MS/MS with compounds detected by MRM detection on a triple quadrupole mass spectrometer. The compound peak areas at 0 and 5 hr were compared to determine a percent remaining. Percent remaining in plasma was calculated through the following equation: % remaining=[area (5 hr)/area (0 hr)]×100. (LC System, Waters Acquity I-Class; MS System, AB Sciex Triple Quad 4500; Column, Waters Acquity UPLC BEH C18, 1.7 μm, 2.1×50 mm; Mobile Phase A, Water with 0.1% formic acid; Mobile Phase B, Acetonitrile with 0.1% formic acid; Flow Rate, 0.90 mL/min; Column Temperature, 55° C.).

[4] = test system: rhodopsin P23H; test: GFP fluorescence in N cells expressing rhodopsin P23H-GFP; format: cell-based, human; conditions: 5 μM, 24 hours
Method: N cells plated in 96-well plates were transfected with 20 ng/well of P23H mutant rhodopsin-GFP plasmid DNA using Lipofectamine 3000 (Thermo Fisher Scientific®). Eight hr post-transfection, the cells were washed and processed as described below.
For the GFP-rhodopsin experiments (FIGS. 15D and 15E), cells were identified by digital phase contrast. GFP signal was calculated only in cells expressing GFP signal above a minimal background (to identify successfully transfected cells) and the mean intensity was averaged for each well.
Detection of MUC1-fs in P cells at baseline and following secretory pathway perturbations was performed using immunoblot and IF analyses. For immunoblot experiments (FIGS. 5E and 13D), P cells were grown in 6-well plates to high confluence. For IF experiments (FIGS. 5B-5D and 13A-13C), P cells were plated in 384-well plates at 12,000 cells/well. Following 24 hr, cells were treated with 5 μM BRD-4780 or DMSO alone, or in combination with 100 nM Bafilomycin A (B1793, Sigma-Aldrich), or 200 ng/mL Brefeldin A (B7651, Sigma-Aldrich) for a maximum period of 24 hr as indicated. For TMED9 or Nischarin depletion experiments, transduced/transfected P cells were plated either in 96-well plates at 60,000 cells/well for IF (FIGS. 6C, 6D and 14B), or grown in 6-well plates to high confluence for immunoblot detection (FIGS. 6B and 14C). […]

[5] = test system: MUC1-fs; test: MUC1-fs subcellular distribution (co-localization IF) in P cells; format: cell-based, human
Method: Cell nuclei were first identified using Hoechst staining, and cell number was calculated. Cytoplasmic regions were then detected around each nucleus based on combined channels. The cells from the edge of the field were eliminated from the analysis. For the quantification of protein abundance, the total signal intensity value for each antibody was calculated separately in the cell cytoplasm and the average signal per cell was calculated for each well. For quantitation of MUC1-fs cellular distribution and trafficking, the analysis was performed as described in FIG. 13A using the “spot” identification feature for the detection of MUC1-fs and the different organelles.
Detection of MUC1-fs in P cells at baseline and following secretory pathway perturbations was performed using immunoblot and IF analyses. […] For IF experiments (FIGS. 5B-5D and 13A-13C), P cells were plated in 384-well plates at 12,000 cells/well.

[6] = test system: UPR; test: RNA-Seq analysis of UPR branch activation in P cells; format: cell-based, human; conditions: BRD-4780 1 μM, THP 100 nM
Method: For RNA-seq experiments, N and P cells were plated in 12-well plates at 200,000 cells/well. Subsequently, 1 μM of BRD-4780 or DMSO were applied for 24 hr followed by 12 hr exposure to 100 nM of thapsigargin (THP) or DMSO for control. At the end of the experiment, RNA was extracted from treated cells and sequencing was performed as described below.
UPR branch activation analysis is presented as boxplots. Each box of the boxplot consists of genes comprising an individual UPR branch (Adamson et al., 2016). The expression of each gene in the group is plotted as mean of the scaled expression profiles obtained from three replicates.

[7] = Plasma protein binding (equilibrium dialysis); format: in vitro ADME
Method: Plasma protein binding was determined by equilibrium dialysis using a Rapid Equilibrium Dialysis (RED) device (Pierce Biotechnology). Each compound was prepared in duplicate at 5 μM in plasma (0.95% acetonitrile, 0.05% DMSO) and added to one side of the membrane with PBS pH 7.4 added to the other side. Compounds were incubated at 37° C. for 5 hr with a 350 rpm orbital shake. After incubation, an aliquot was taken from each side of the membrane and quenched by adding acetontrile to a 3:1 ratio (v/v, ACN:plasma). After quenching, samples were centrifuged (32×G) to pellet precipitated particulates and an aliquot of supernatant was diluted 50/50 (v/v) with water. The resulting solution was analyzed by UPLC-MS/MS with compounds detected by MRM detection on a triple quadrupole mass spectrometer. The compound peak area on the buffer side of the membrane was compared to the peak area on the plasma side of the membrane to determine percent bound. Percent bound in plasma was calculated through the following equations: % free=[area (buffer)/area (plasma)]×100. % bound=100−% free.

With `CC(C)[C@@H]1[C@H]2CC[C@H](C2)[C@H]1N` (racemic) [BRD-4780, 2-endo-amino-3-exo-isopropylbicyclo[2.2.1]heptane] the “rescue from THP-induced cell death” value [1] was “rescued P cells from THP-induced cell death”, the “dose proportionality of AUC exposures” value [2] was “not dose proportional” and the plasma stability [3] was “good microsomal and plasma stability”. For the same compound, the “GFP fluorescence of GFP-rhodopsin P23H” value [4] was “significantly decreased GFP fluorescence at 24 hours”, the MUC1-fs subcellular distribution [5] was “reduced in the early secretory compartment” and the UPR activation [6] was “significantly reduced UPR activation”. The “protein binding (in words)” value [7] was “low protein binding” and the “estimated percent protein bound” value ([7]; plasma) was 29.7%.
